Assay results published in US8410113B2, “(2R)-1-(3-chloro-2-pyrazinyl)-2-methylpiperazine and salts thereof” (Biovitrum AB (publ), priority 2002, dated 2013).
Entries after “also recorded” stand apart in the source; their conditions may differ.

Legend:
[1] = Solubility
Description: Solubility (Water, pH 1.2 and pH 7.4 Buffers)
(§1) Solubility and Intrinsic Dissolution Rate

[2] = Crystallinity (X-rays / powder X-ray diffraction); type: physicochemical; conditions: for Crystallinity (Powder X-Ray Diffraction): salts of Example 2C; for Crystallinity (X-Rays): salts of Example 2A; for degree of crystallinity (Powder X-Ray Diffraction): salts of Example 2B, fumarate
Description: (§2) Crystallinity (Powder X-Ray Diffraction)
as §2

[3] = Hygroscopicity (DVS, storage at RT/different RHs and at 40° C./75% RH); type: physicochemical
Protocol: Hygroscopicity (DVS, Storage at RT/Different RHs and at 40° C./75% RH)

[4] = controlled studies; cited from earlier work
[5] = Intrinsic dissolution rate; type: physicochemical; conditions: for intrinsic dissolution rate (in words, order): salts of Example 2B
Description: Intrinsic Dissolution Rate (pH 1.2)
as §1

[6] = Chemical stability (2 weeks at 65° C.); type: physicochemical; conditions: salts of Example 2A, also RT/90% RH
Protocol: Chemical Stability (2 Weeks at 65° C.)

[7] = Polymorphism screen (RT evaporation, cooling crystallization at −20° C.); type: physicochemical; conditions: salts of Example 2A, cooling crystallization at −20° C. in different solvent or mixtures
[8] = salts of Example 2C; assessment, no test described; cited from earlier work
[9] = salts of Example 2A, DVS, storage at RT/different RHs
[10] = salts of Example 2C, purified water, preliminary studies

Q: What does the source list for “(2R)-1-[3-(2-{[2-(2-dimethylaminoethoxy)-3-pyridinyl]oxy}ethoxy)-2-pyrazinyl]-2-methylpiperazine, 1,5-naphthalenedisulfonate”?
A: solubility ([1]; salts of Example 2C, medium not stated): > 540 mg/mL; Crystallinity (Powder X-Ray Diffraction) [2]: predominantly crystalline; Hygroscopicity ([3]; salts of Example 2C): moderate

Q: For `C[C@@H]1CNCCN1c1nccnc1OCCOc1cccnc1OCCN(C)C.O=C(O)CC(O)(CC(=O)O)C(=O)O` [citrate, (2R)-1-[3-(2-{[2-(2-dimethylaminoethoxy)-3-pyridinyl]oxy}ethoxy)-2-pyrazinyl]-2-methylpiperazine, citrate], which “Crystallinity (Powder X-Ray Diffraction)” value [2] is on record?
A: practically amorphous

Q: What about the Hygroscopicity ([3]; salts of Example 2C) of the same molecule?
A: very hygroscopic and deliquescent

Q: Which “Crystallinity (Powder X-Ray Diffraction)” value [2] does the source give for `C[C@@H]1CNCCN1c1nccnc1OCCOc1cccnc1OCCN(C)C.O=C(O)C(O)C(O)C(=O)O` [D-tartrate, (2R)-1-[3-(2-{[2-(2-dimethylaminoethoxy)-3-pyridinyl]oxy}ethoxy)-2-pyrazinyl]-2-methylpiperazine, D-tartrate] here?
A: low degree of crystallinity

Q: What about the Hygroscopicity ([3]; salts of Example 2C) of the same molecule?
A: very hygroscopic and deliquescent

Q: For `CNCCC(Oc1ccc(C(F)(F)F)cc1)c1ccccc1` (stereo not shown) [fluoxetine], which weight reduction [4] is on record?
A: weight reduction

Q: With “(2R)-methyl-1-{3-[2-(3-pyridinyloxy)ethoxy]-2-pyrazinyl}piperazine, cinnamate” as the molecule, how does the “Intrinsic dissolution rate (IDR)” value ([5]; salts of Example 2A, pH 1.2) read?
A: 10^−3 mgsec^−1 cm^−2

Q: And the Chemical stability [6]?
A: Positive data

Q: And the “Crystallinity (X-Rays)” value [2]?
A: Positive results

Q: And the “behavior upon exposition to 40° C./75% RH” value ([3]; salts of Example 2A, 40° C./75% RH)?
A: good behavior

Q: Which Chemical stability [6] does the source give for `C[C@@H]1CNCCN1c1nccnc1OCCOc1cccnc1.O=C(O)c1ccccc1` [benzoate, (2R)-methyl-1-{3-[2-(3-pyridinyloxy)ethoxy]-2-pyrazinyl}piperazine, benzoate] here?
A: Positive data

Q: And the “Crystallinity (X-Rays)” value [2]?
A: Positive results

Q: What about the Hygroscopicity [3, 9] of the same molecule?
A: cake formation and darkening

Q: What about the Polymorphism [7] of the same molecule?
A: did not show other polymorphs

Q: Which Chemical stability [6] does the source give for “(2R)-1-(3-{2-[(2-ethoxy-3-pyridinyl)oxy]ethoxy}-2-pyrazinyl)-2-methylpiperazine, fumarate [reference compound]” here?
A: less stable

Q: And the “Crystallinity (X-Rays)” value [2]?
A: lower crystallinity

Q: And the Hygroscopicity [3, 9]?
A: hydrate conversion

Q: With `C[C@@H]1CNCCN1c1nccnc1OCCOc1cccnc1OCCN(C)C.O=C(O)[C@@H](O)[C@H](O)[C@H](O)[C@@H](O)C(=O)O` [galactareate, (2R)-1-[3-(2-{[2-(2-dimethylaminoethoxy)-3-pyridinyl]oxy}ethoxy)-2-pyrazinyl]-2-methylpiperazine, galactareate (mucic acid salt)] as the molecule, how does the “Crystallinity (Powder X-Ray Diffraction)” value [2] read?
A: partially amorphous

Q: With `CCOc1ncccc1OCCOc1nccnc1N1CCNC[C@H]1C.O=C(O)CCC(=O)O` as the molecule, how does the melting point read?
A: 116 to 132 °C

Q: Which results are given for “(2R)-1-[3-(2-{[2-(2-dimethylaminoethoxy)-3-pyridinyl]oxy}ethoxy)-2-pyrazinyl]-2-methylpiperazine, terephthalate”?
A: solubility [1, 10]: < 1 mg/mL; Crystallinity (Powder X-Ray Diffraction) [2]: predominantly crystalline; Hygroscopicity ([3]; salts of Example 2C): hight (deliquescent)

Q: With `C[C@@H]1CNCCN1c1nccnc1OCCOc1cccnc1OCCN(C)C.O=C(O)CCC(=O)O` [succinate, (2R)-1-[3-(2-{[2-(2-dimethylaminoethoxy)-3-pyridinyl]oxy}ethoxy)-2-pyrazinyl]-2-methylpiperazine, succinate] as the molecule, how does the “intrinsic dissolution rate (in words, order)” value [5] read?
A: base<fumarate<succinate

Q: What about the “solubility (in words, comparison of salts)” value ([1]; salts of Example 2B) of the same molecule?
A: higher than the fumarate salt

Q: What about the Hygroscopicity ([3]; salts of Example 2C) of the same molecule?
A: very hygroscopic and deliquescent

Q: For `C[C@@H]1CNCCN1c1nccnc1OCCOc1cccnc1OCCN(C)C.O=C(O)C(=O)O` [oxalate, (2R)-1-[3-(2-{[2-(2-dimethylaminoethoxy)-3-pyridinyl]oxy}ethoxy)-2-pyrazinyl]-2-methylpiperazine, oxalate], which “Crystallinity (Powder X-Ray Diffraction)” value [2] is on record?
A: high degree of crystallinity

Q: And the Hygroscopicity ([3]; salts of Example 2C)?
A: low

Q: What about the Toxicological acceptability [8] of the same molecule?
A: inappropriate due to toxicological reasons

Q: Which results are given for “(2R)-1-[3-(2-{[2-(2-dimethylaminoethoxy)-3-pyridinyl]oxy}ethoxy)-2-pyrazinyl]-2-methylpiperazine, 1,3,5-benzenetricarboxylate”?
A: solubility (in words, comparison of salts) ([1]; salts of Example 2C): lower than for the phosphoric acid salt; solubility ([1]; salts of Example 2C, SGF (simulated gastric fluid without enzymes; pH of filtrate 2.9), preliminary studies): > 19 mg/mL; solubility ([1]; salts of Example 2C, SIF (simulated intestinal fluid without enzymes; pH of filtrate 4.2), preliminary studies): 11 mg/mL; solubility [1, 10]: ≈ 4 mg/ml; Crystallinity (Powder X-Ray Diffraction) [2]: predominantly crystalline; Hygroscopicity ([3]; salts of Example 2C): low

Q: What does the source list for `C[C@@H]1CNCCN1c1nccnc1OCCOc1cccnc1.Cl` [hydrochloride, (2R)-methyl-1-{3-[2-(3-pyridinyloxy)ethoxy]-2-pyrazinyl}piperazine, hydrochloride, reference compound]?
A: Crystallinity (X-Rays) [2]: lower crystallinity; Hygroscopicity [3, 9]: deliquescent

Q: Which “intrinsic dissolution rate (in words, order)” value [5] does the source give for `CCOc1ncccc1OCCOc1nccnc1N1CCNC[C@H]1C` [Example 2B, (2R)-1-(3-{2-[(2-ethoxy-3-pyridinyl)oxy]ethoxy}-2-pyrazinyl)-2-methylpiperazine] here?
A: base<fumarate<succinate

Q: For `CCOc1ncccc1OCCOc1nccnc1N1CCNC[C@H]1C.O=C(O)/C=C/C(=O)O` [fumarate, (2R)-1-(3-{2-[(2-ethoxy-3-pyridinyl)oxy]ethoxy}-2-pyrazinyl)-2-methylpiperazine, fumarate, reference compound], which “intrinsic dissolution rate (in words, order)” value ([5]; fumarate) is on record?
A: base<fumarate<succinate

Q: What about the “intrinsic dissolution rate (in words, order)” value ([5]; listed as fumarate salt, fumarate) of the same molecule?
A: inferior to that of the succinate salt

Q: What about the solubility ([1]; 0.9% w/w NaCl, saline or isotonic) of the same molecule?
A: > 93 mg/mL

Q: What about the solubility ([1]; phosphate buffer, pH 7.4, aqueous buffer) of the same molecule?
A: > 68 mg/mL

Q: And the “solubility (in words, comparison of salts)” value ([1]; salts of Example 2B)?
A: inferior to that of the succinate salt

Q: What about the “degree of crystallinity (Powder X-Ray Diffraction)” value [2] of the same molecule?
A: succinate>acetate>fumarate

Q: And the “degree of crystallinity (Powder X-Ray Diffraction)” value ([2]; listed as fumarate salt)?
A: inferior to that of the succinate salt

Q: With `CCN[C@@H](C)Cc1cccc(C(F)(F)F)c1` [dexfenfluramine] as the molecule, how does the weight reduction [4] read?
A: weight reduction

Q: For `C[C@@H]1CNCCN1c1nccnc1OCCOc1cccnc1OCCN(C)C.O=C(O)CN(CCN(CC(=O)O)CC(=O)O)CC(=O)O` [edeteate, (2R)-1-[3-(2-{[2-(2-dimethylaminoethoxy)-3-pyridinyl]oxy}ethoxy)-2-pyrazinyl]-2-methylpiperazine, edeteate], which “Crystallinity (Powder X-Ray Diffraction)” value [2] is on record?
A: practically amorphous

Q: And the Hygroscopicity ([3]; salts of Example 2C)?
A: very hygroscopic and deliquescent

Q: For `C[C@@H]1CNCCN1c1nccnc1OCCOc1cccnc1OCCN(C)C.O=P(O)(O)O` [Example 3C, (2R)-1-[3-(2-{[2-(2-dimethylaminoethoxy)-3-pyridinyl]oxy}ethoxy)-2-pyrazinyl]-2-methylpiperazine, phosphoric acid salt], which melting point is on record?
A: 140 to 168 °C

Q: What about the “solubility (in words, comparison of salts)” value ([1]; salts of Example 2C) of the same molecule?
A: high solubility

Q: What about the solubility ([1]; water) of the same molecule?
A: ≥ 590 mg/mL

Q: What about the “Crystallinity (Powder X-Ray Diffraction)” value [2] of the same molecule?
A: predominantely crystalline to moderately crystallinity; also recorded: high crystallinity

Q: What about the Hygroscopicity ([3]; salts of Example 2C) of the same molecule?
A: low and low hygroscopicity

Q: What about the Toxicological acceptability [8] of the same molecule?
A: low toxicity
